In patent US9512139B2, “Conformationally constrained, fully synthetic macrocyclic compounds” (POLYPHOR AG, priority 2009, dated 2016):

Key:
[1] = Metabolic stability assay, CD-1 mouse microsomes; assay type: in vitro ADME; conditions: microsomes; for Metabolic Stability 60 min mouse [% remain.]: 1 h; for half-life at 10 µM: both sexes
Procedure: (§1) 4. Plasma and Metabolic Stability Assays
(§2) The assays were conducted according to literature precedents (F. P. Guengerich, Analysis and Characterization of Enzymes; in: Principles and Methods of Toxicology; A. W. Hayes (Ed.) Raven Press: New York, 1989, 777-813; R. Singh et al., In vitro metabolism of a potent HIV-protease inhibitor (141W94) using rat, monkey and human liver S9, Rapid Commun. Mass Spectrom. 1996, 10, 1019-1026).
(§3) Metabolic Stability Assay
(§4) Microsomes from a human 50 donor mixed gender pool and 1:1 mixtures of microsomes from CD-1 mouse single-gender pools are purchased from Celsis (Belgium). The enzymatic reaction is performed in a buffer containing an NADPH regeneration system and microsomes with the following end concentrations: 100 mM potassium phosphate buffer (all from Sigma), 1 mg/mL glucose-6-phosphate, 1 mg/mL β-nicotinamide adenine dinucleotide phosphate (NADP), 0.65 mg/mL magnesium chloride, 0.8 units/mL of glucose-6-phosphate dehydrogenase (prediluted with 5 mM citrate buffer), 10 μM compound and 1 mg/ml microsomal protein. Compounds are incubated at 37° C. in duplicates and samples are taken after 0, 20 and 60 minutes. After acetonitrile precipitation (2 volumes) and HPLC/MS/MS analysis metabolic turnover is expressed in % of the initial 0 minutes value and half life T½ (min) is calculated. Verapamil for human and propranolol for mouse are used as reference and are assayed with every experimental set.

[2] = Metabolic stability assay, human microsomes; assay type: in vitro ADME; conditions: human, microsomes; for Metabolic Stability 60 min hum [% remain.]: 1 h
Procedure: as §1, §2, §3, §4

in vitro [3] = assay type: in vitro ADME, human; conditions: human, plasma; for Plasma Stability 240 min hum [% remain.]: 4 h
Procedure: Example compounds were dissolved in DMSO/H2O 90:10 to a final concentration of 10 mM for plasma stability determination and metabolic stability determination.
Human plasma (3-5 donors, Blutspendedienst SRK, Basel) and CD-1 mouse plasma (mixed gender pool >50 animals, Innovative Research, CA, USA) are both sodium citrate stabilized. The assay is performed in triplicates at 10 μM compound concentration and 37° C. Samples are taken at 0, 15, 60, and 240 minutes and stopped by precipitation with 2 volumes of acetonitrile. The supernatant is collected, evaporated and reconstituted in a 5% acetonitrile solution to be analyzed by HPLC/MS/MS. The resulting peak area counts are expressed in percent of the 0 value and used to determine the endpoint stability in % and the half life in minutes. In order to monitor assay integrity the degradation of propantheline is assayed with every experimental set.

in vitro [4] = assay type: in vitro ADME, mouse; conditions: plasma; for Plasma Stability 240 min mouse [% remain.]: 4 h
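Wherever Plasma Stability 240 min mouse [% remain.] is given: sodium citrate stabilized mouse plasma, parent compound quantified by HPLC/MS/MS relative to its peak area at time zero, run in triplicate.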
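Wherever Plasma Stability T½ [min] mouse is given: sodium citrate stabilized mouse plasma, parent compound quantified by HPLC/MS/MS relative to its peak area at time zero, run in triplicate.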

| Structure (SMILES) | Metabolic Stability T½ [min] mouse ([1]; both, CD-1, mouse, 10 µM) | Metabolic Stability 60 min mouse [% remain.] ([1]; both, CD-1, mouse, 10 µM) | Metabolic Stability T½ [min] hum ([2]; both, 10 µM) | Metabolic Stability 60 min hum [% remain.] ([2]; both, 10 µM) | Plasma Stability T½ [min] hum (in vitro [3]; 10 µM) | Plasma Stability 240 min hum [% remain.] (in vitro [3]; 10 µM) | Plasma Stability T½ [min] mouse (in vitro [4]; both, CD-1, mouse, 10 µM) | Plasma Stability 240 min mouse [% remain.] (in vitro [4]; both, CD-1, mouse, 10 µM) | Metabolic Stability T½ [min] mouse ([1]; mouse) | Metabolic Stability 60 min mouse [% remain.] ([1]; mouse) | Metabolic Stability T½ [min] hum [2] | Metabolic Stability 60 min hum [% remain.] [2] | Plasma Stability T½ [min] hum (in vitro [3]) | Plasma Stability 240 min hum [% remain.] (in vitro [3]) | Plasma Stability T½ [min] mouse (in vitro [4]; mouse) | Plasma Stability 240 min mouse [% remain.] (in vitro [4]; mouse) | half-life at 10 µM ([1]; CD-1, mouse) | half-life at 10 µM ([2]; both sexes) | half-life at 10 µM (in vitro [4]; both sexes, CD-1, mouse) |
| --- | --- | --- | --- | --- | --- | --- | --- | --- | --- | --- | --- | --- | --- | --- | --- | --- | --- | --- | --- |
| CN1CC(=O)N2C[C@@H](NC(=O)CN3CCCC3)C[C@H]2COc2ccc(F)cc2C(=O)N(C)[C@@H](C(=O)N2CCCC2)CCC1=O [Ex. 98, N-[(2S,11R,19aS)-15-fluoro-7,12-dimethyl-5,8,13-trioxo-11-(1-pyrrolidinylcarbonyl)-2,3,6,7,8,9, 10,11,12,13,19,19a-dodecahydro-1H,5H-pyrrolo[2,1-c][1,4,7,12]benzoxatriazacyclopentadecin-2-yl]-2-(1-pyrrolidinyl)acetamide] | > 60 min | 100 % remain. | > 60 min | 97 % remain. | > 240 min | 100 % remain. | > 240 min | 78 % remain. |  |  |  |  |  |  |  |  |  |  |  |
| CN1CCC[C@H](NC(=O)CC(C)(C)C)C(=O)N2C[C@@H](N)C[C@H]2COc2cccc(c2)C1=O [Ex. 533, N-[(4S,6S,10S)-6-amino-14-methyl-9,15-dioxo-2-oxa-8,14-diazatricyclo[14.3.1.0^4,8]icosa-1(20),16,18-trien-10-yl]-3,3-dimethylbutanamide] | > 60 min | 93 % remain. | > 60 min | 59 % remain. | > 240 min | 95 % remain. | > 240 min | 100 % remain. |  |  |  |  |  |  |  |  |  |  |  |
| CN1CC(=O)N2C[C@H](NC(=O)Cc3ccc4ccccc4c3)C[C@H]2COc2ccc(cc2)C(=O)N(C)[C@H](C(=O)N2CCCC2)CCC1=O [Ex. 264, N-[(4S,6R,15S)-11,16-dimethyl-9,12,17-trioxo-15-(1-pyrrolidinylcarbonyl)-2-oxa-8,11,16-triazatricyclo[16.2.2.0^4,8]docosa-1(20),18,21-trien-6-yl]-2-(2-naphthyl)acetamide] |  | 32 % remain. |  |  | > 240 min | 94 % remain. | > 240 min | 88 % remain. |  |  |  |  |  |  |  |  | 42 min |  |  |
| CCCCC(=O)N[C@H]1C[C@H]2COc3cccc(c3)C(=O)N(C)CC[C@H](N)C(=O)N2C1 [Ex. 167, N-[(4S,6S,10S)-10-amino-13-methyl-9,14-dioxo-2-oxa-8,13-diazatricyclo[13.3.1.0^4,8]nonadeca-1(19),15,17-trien-6-yl] pentanamide] | > 60 min | 65 % remain. | > 60 min | 58 % remain. |  |  |  | 17 % remain. |  |  |  |  |  |  |  |  |  |  | 35 min |

Continued, values first:

| Metabolic Stability T½ [min] mouse ([1]; both, CD-1, mouse, 10 µM) | Metabolic Stability 60 min mouse [% remain.] ([1]; both, CD-1, mouse, 10 µM) | Metabolic Stability T½ [min] hum ([2]; both, 10 µM) | Metabolic Stability 60 min hum [% remain.] ([2]; both, 10 µM) | Plasma Stability T½ [min] hum (in vitro [3]; 10 µM) | Plasma Stability 240 min hum [% remain.] (in vitro [3]; 10 µM) | Plasma Stability T½ [min] mouse (in vitro [4]; both, CD-1, mouse, 10 µM) | Plasma Stability 240 min mouse [% remain.] (in vitro [4]; both, CD-1, mouse, 10 µM) | Metabolic Stability T½ [min] mouse ([1]; mouse) | Metabolic Stability 60 min mouse [% remain.] ([1]; mouse) | Metabolic Stability T½ [min] hum [2] | Metabolic Stability 60 min hum [% remain.] [2] | Plasma Stability T½ [min] hum (in vitro [3]) | Plasma Stability 240 min hum [% remain.] (in vitro [3]) | Plasma Stability T½ [min] mouse (in vitro [4]; mouse) | Plasma Stability 240 min mouse [% remain.] (in vitro [4]; mouse) | half-life at 10 µM ([1]; CD-1, mouse) | half-life at 10 µM ([2]; both sexes) | half-life at 10 µM (in vitro [4]; both sexes, CD-1, mouse) | Structure (SMILES) |
| --- | --- | --- | --- | --- | --- | --- | --- | --- | --- | --- | --- | --- | --- | --- | --- | --- | --- | --- | --- |
|  |  |  |  |  |  |  |  | > 60 min | 94 % remain. | > 60 min | 76 % remain. | > 240 min | 100 % remain. | > 240 min | 93 % remain. |  |  |  | CN1CC(=O)N2C[C@@H](NC(=O)CCC(=O)O)C[C@H]2COc2ccc(F)cc2C(=O)N(C)[C@@H](C(=O)NCc2ccc3ccccc3c2)CCC1=O [Ex. 95] |
|  | 15 % remain. |  | 1 % remain. | > 240 min | 100 % remain. | > 240 min | 100 % remain. |  |  |  |  |  |  |  |  | 29 min | 24 min |  | CNC(=O)[C@H]1CCC(=O)N(C)CC(=O)N2C[C@@H](NC(=O)Cc3ccc4ccccc4c3)C[C@H]2COc2ccc(F)cc2C(=O)N1C [Ex. 93, (2S,11R,19aS)-15-fluoro-N,7,12-trimethyl-2-{[2-(2-naphthyl)acetyl]amino}-5,8,13-trioxo-2,3,6,7,8,9,10,11,12, 13,19,19a-dodecahydro-1H,5H-pyrrolo[2,1-c][1,4,7,12] benzoxatriazacyclopentadecine-11-carboxamide] |
